Experimental findings from US20180021456A1, “SELF-ASSEMBLED TARGETED INCLUSION COMPLEXES FOR DRUG DELIVERY” (UNIVERSITY OF SOUTH FLORIDA, priority 2015, published 2018) are described below.

The test system of one experiment is MCF-7 cells. Kind of experiment: Competition assay of estrone and tamoxifen with CDE1-Ada-DOX uptake in MCF-7 cells (flow cytometry). To be noted: CDE1-Ada-DOX 2 μM. The experiment is classed as cell-based, human. The procedure: FIG. 17 is a bar graph of the fluorescence intensity for competition assay of CDE1-Ada-DOX at 2 μM in MCF-7 cells in the presence of estrone and tamoxifen at 0.1-10 μM. The results are represented as means±SD from triplicate determinations.
Flow cytometer: In all cases, unless otherwise indicated, the flow cytometric analysis was performed on a FACS (Becton Dickinson Immunocytometry Systems, San Jose, Calif.) by counting 10,000 events.
Moreover, the competition assay of estrone and tamoxifen with CDE1-Ada-DOX in MCF-7 cells was conducted and is shown in FIG. 17. […] Moreover, the ER antagonist-tamoxifen, which is the most prescribed medicine to treat hormone receptor-positive breast cancer, is capable of binding to the estrogen receptor but blocks its activity. […] While for both estrone and tamoxifen, inhibition saturated at concentrations higher than 5 μM. […] Addition of an Ada-DOX guest led to the decomplexation of the estrogen moiety. […] The results are consistent and replicable with the TEM/SEM observations.
(In general: In flow cytometry, cells or beads pass a laser one at a time.)

Experiment [1] concerns extracellular signal-regulated kinases 1 and 2 (ERK1 and ERK2). In words: Rapid phosphorylation of ERK1 and ERK2 (MAPK) after treatment. The experiment is classed as cell-based. As to conditions: treatment at 1 μM.
Text: Western Blot: In all cases, unless otherwise indicated, the western blots were visualized by Bio-Rad digital imaging system and analyzed by Quantity One 1-D analyzing software.

Usually inhibition stands for the change of the read-out against control, counted positive when it falls. High values mean a strong effect, low ones a weak effect. In turn, `CC/C(=C(\c1ccccc1)c1ccc(OCCN(C)C)cc1)c1ccccc1` [tamoxifen] came in with an inhibition at 5 µM with MCF-7 cells (Homo sapiens, MCF7, competitor at 5 μM) of 80%. The “inhibition of CDE1-Ada-DOX uptake” value with MCF-7 cells (competitor at 1 μM and above (p<0.001)) is “significantly inhibited”.
For `C[C@]12CC[C@@H]3c4ccc(O)cc4CC[C@H]3[C@@H]1CC[C@@H]2O` [E2, 17β-estradiol], the “time of maximum MAPK phosphorylation” value in experiment [1] is recorded as 10 min.
